# Like-named read-outs stand apart in the source and are kept apart here.
# How the values were obtained:
# Assay type in all cases: cell-based
# U251 = assay: NCI60 one-dose screen; settings: Homo sapiens
# BT-549 = assay: NCI60 one-dose screen; settings: Homo sapiens
# ACHN = assay: NCI60 one-dose screen; settings: Homo sapiens, read-out: Growth percent
# HOP-62 = assay: NCI60 one-dose screen; settings: Homo sapiens
# SF-295 = assay: NCI60 one-dose screen; settings: Homo sapiens
# CAKI-1 [1] = assay: NCI60 one-dose screen; settings: Homo sapiens
# MOLT-4 = assay: NCI60 one-dose screen; settings: Homo sapiens
# MCF7 = assay: NCI60 one-dose screen; settings: Homo sapiens
# OVCAR-8 = assay: NCI60 one-dose screen; settings: Homo sapiens
# UACC-257 = assay: NCI60 one-dose screen; settings: Homo sapiens
# SK-MEL-2 = assay: NCI60 one-dose screen; settings: Homo sapiens
# HL-60(TB) = assay: NCI60 one-dose screen; settings: Homo sapiens
# HOP-92 [2] = assay: NCI60 one-dose screen; settings: Homo sapiens
# NCI-H226 [3] = assay: NCI60 one-dose screen; settings: Homo sapiens
# CNS Cancer panel = assay: NCI60 five-dose screen, panel mean; settings: Homo sapiens
# HOP-92 [4] = assay: NCI60 five-dose screen; settings: Homo sapiens
# Colon Cancer panel = assay: NCI60 five-dose screen, panel mean; settings: Homo sapiens
# Leukemia panel = assay: NCI60 five-dose screen, panel mean; settings: Homo sapiens
# T-47D = assay: NCI60 five-dose screen; settings: Homo sapiens, T47D
# A549/ATCC = assay: NCI60 five-dose screen; settings: Homo sapiens
# SR = assay: NCI60 five-dose screen; settings: Homo sapiens
# SK-MEL-5 = assay: NCI60 five-dose screen; settings: Homo sapiens
# HS 578T = assay: NCI60 five-dose screen; settings: Homo sapiens
# SN12C = assay: NCI60 five-dose screen; settings: Homo sapiens
# CAKI-1 [5] = assay: NCI60 five-dose screen; settings: Homo sapiens
# HT29 = assay: NCI60 five-dose screen; settings: Homo sapiens, HT-29
# HCC-2998 = assay: NCI60 five-dose screen; settings: Homo sapiens
# MDA-MB-435 = assay: NCI60 five-dose screen; settings: Homo sapiens
# Breast Cancer panel = assay: NCI60 five-dose screen, panel mean; settings: Homo sapiens
# NCI-H226 [6] = assay: NCI60 five-dose screen; settings: Homo sapiens
# SNB-19 = assay: NCI60 five-dose screen; settings: Homo sapiens
# IGROV1 = assay: NCI60 five-dose screen; settings: Homo sapiens, IGROV-1
# SF-268 = assay: NCI60 five-dose screen; settings: Homo sapiens
# [7] = system: 60 human tumor cell lines (NCI60); assay: NCI60 five-dose screen, overall mean; settings: read-out: GI50 Mean, mean over all 60 human cancer cell lines
# [8] = U-251, read-out: Growth percent
# [9] = BT-549, read-out: Growth percent
# [10] = HOP-62, read-out: Growth percent
# [11] = SF-295, read-out: Growth percent
# [12] = CAKI-1, read-out: Growth percent
# [13] = MOLT-4, read-out: Growth percent
# [14] = OVCAR-8, read-out: Growth percent
# [15] = UACC-257, read-out: Growth percent
# [16] = SK-MEL-2, read-out: Growth percent
# [17] = HL-60, read-out: Growth percent
# [18] = HOP-92, read-out: Growth percent
# [19] = NCI-H226, read-out: Growth percent
smiles,measurement,setting,value
"CCC12C=CCN3CC[C@@]4(c5ccc(OC)cc5N(C)[C@H]4[C@@](O)(C(=O)OC)[C@@H]1OC(C)=O)[C@@H]32 (stereo partly drawn) [compound 2, vindoline]",activity at 10 µM,U251; [8],99.4%
same,activity at 10 µM,BT-549; [9],114%
same,activity at 10 µM,ACHN,101%
same,activity at 10 µM,HOP-62; [10],92.2%
same,activity at 10 µM,SF-295; [11],99.5%
same,activity at 10 µM,CAKI-1 [1]; [12],97.5%
same,activity at 10 µM,MOLT-4; [13],103%
same,activity at 10 µM,"MCF7; MCF7, read-out: Growth percent",99%
same,activity at 10 µM,OVCAR-8; [14],99.8%
same,activity at 10 µM,UACC-257; [15],98.7%
same,activity at 10 µM,SK-MEL-2; [16],107%
same,activity at 10 µM,HL-60(TB); [17],104%
same,activity at 10 µM,HOP-92 [2]; [18],84.2%
same,activity at 10 µM,NCI-H226 [3]; [19],104%
CC[C@]12C=CCN3CC[C@@]4(c5ccc(OC)cc5N(C)[C@H]4[C@@](O)(C(=O)OC)[C@@H]1OC(=O)CCC[P+](c1ccc(OC)cc1)(c1ccc(OC)cc1)c1ccc(OC)cc1)[C@@H]32 [9b],GI50,"CNS Cancer panel; mean over CNS Cancer panel, read-out: Mean GI50",1020 nM
same,GI50,"HOP-92 [4]; HOP-92, Non-small Cell Lung Cancer, five-dose, read-out: GI50",344 nM
same,GI50,"Colon Cancer panel; mean over Colon Cancer panel, read-out: Mean GI50",980 nM
same,activity at 10 µM,"U251; U-251, U251, 10 μM, one-dose, read-out: Growth percent",-93.7%
same,GI50,"Leukemia panel; mean over Leukemia panel, read-out: Mean GI50",550 nM
same,GI50,"T-47D; T-47D, Breast Cancer, five-dose, read-out: GI50",353 nM
same,GI50,"A549/ATCC; A549/ATCC, Non-small Cell Lung Cancer, five-dose, read-out: GI50",731 nM
same,activity at 10 µM,"BT-549; BT-549, 10 μM, one-dose, read-out: Growth percent",-96.6%
same,GI50,"SR; Leukemia, five-dose, read-out: GI50",389 nM
same,activity at 10 µM,"ACHN; 10 μM, one-dose",-95.8%
same,activity at 10 µM,"HOP-62; HOP-62, 10 μM, one-dose, read-out: Growth percent",-81.5%
same,activity at 10 µM,"SF-295; SF-295, 10 μM, one-dose, read-out: Growth percent",-93.7%
same,activity at 10 µM,"CAKI-1 [1]; CAKI-1, 10 μM, one-dose, read-out: Growth percent",-93.3%
same,activity at 10 µM,"MOLT-4; MOLT-4, 10 μM, one-dose, read-out: Growth percent",-36.8%
same,GI50,"SK-MEL-5; SK-MEL-5, Melanoma, five-dose, read-out: GI50",1550 nM
same,activity at 10 µM,"MCF7; MCF7, 10 μM, one-dose, read-out: Growth percent",-83%
same,activity at 10 µM,"OVCAR-8; OVCAR-8, 10 μM, one-dose, read-out: Growth percent",-86.2%
same,GI50,"HS 578T; HS 578T, Breast Cancer, five-dose, read-out: GI50",1180 nM
same,GI50,"SN12C; Renal Cancer, five-dose, read-out: GI50",672 nM
same,activity at 10 µM,"UACC-257; UACC-257, 10 μM, one-dose, read-out: Growth percent",-93.5%
same,GI50,"CAKI-1 [5]; CAKI-1, Renal Cancer, five-dose, read-out: GI50",13700 nM
same,GI50,"HT29; HT29, Colon Cancer, five-dose, read-out: GI50",371 nM
same,GI50,"HCC-2998; HCC-2998, Colon Cancer, five-dose, read-out: GI50",498 nM
same,GI50,"MDA-MB-435; MDA-MB-435, Melanoma, five-dose, read-out: GI50",480 nM
same,activity at 10 µM,"SK-MEL-2; SK-MEL-2, 10 μM, one-dose, read-out: Growth percent",-90.6%
same,activity at 10 µM,"HL-60(TB); HL-60(TB), 10 μM, one-dose, read-out: Growth percent",-39.6%
same,GI50,"Breast Cancer panel; mean over Breast Cancer panel, read-out: Mean GI50",640 nM
same,GI50,"NCI-H226 [6]; NCI-H226, Non-small Cell Lung Cancer, five-dose, read-out: GI50",1430 nM
same,activity at 10 µM,"HOP-92 [2]; HOP-92, 10 μM, one-dose, read-out: Growth percent",-82.9%
same,GI50,"SNB-19; SNB-19, SNB-19, CNS Cancer, five-dose, read-out: GI50",391 nM
same,GI50,"IGROV1; IGROV1, Ovarian Cancer, five-dose, read-out: GI50",533 nM
same,GI50,"SF-268; SF-268, CNS Cancer, five-dose, read-out: GI50",1210 nM
same,activity at 10 µM,"NCI-H226 [3]; NCI-H226, 10 μM, one-dose, read-out: Growth percent",-80.3%
CCC12C=CCN3CCC4(c5ccc(OC)cc5N(C)C4C(O)(C(=O)OC)C1OC(=O)CCC[P+](c1ccc(C)cc1)(c1ccc(C)cc1)c1ccc(C)cc1)C32 (stereo not drawn) [9a],GI50,CNS Cancer panel; read-out: Mean GI50,360 nM
same,GI50,HOP-92 [4]; HOP-92,187 nM
same,GI50,Colon Cancer panel; read-out: Mean GI50,510 nM
same,activity at 10 µM,U251; [8],-91.2%
same,GI50,Leukemia panel; read-out: Mean GI50,260 nM
same,GI50,T-47D,314 nM
same,GI50,A549/ATCC; A549,334 nM
same,activity at 10 µM,BT-549; [9],-96.9%
same,GI50,SR,281 nM
same,activity at 10 µM,ACHN,-97.8%
same,activity at 10 µM,HOP-62; [10],-81.6%
same,activity at 10 µM,SF-295; [11],-89.1%
same,activity at 10 µM,CAKI-1 [1]; [12],-95.3%
same,activity at 10 µM,MOLT-4; [13],-45.1%
same,GI50,SK-MEL-5; SK-MEL-5,532 nM
same,activity at 10 µM,"MCF7; MCF7, read-out: Growth percent",-76.3%
same,activity at 10 µM,OVCAR-8; [14],-85%
same,GI50,HS 578T; Hs-578T,344 nM
same,GI50,SN12C,291 nM
same,activity at 10 µM,UACC-257; [15],-92.7%
same,GI50,CAKI-1 [5]; CAKI-1,1870 nM
same,GI50,HT29,219 nM
same,GI50,HCC-2998; HCC 2998,415 nM
same,GI50,MDA-MB-435; MDA-MB-435,331 nM
same,activity at 10 µM,SK-MEL-2; [16],-85.4%
same,activity at 10 µM,HL-60(TB); [17],-47.5%
same,GI50,Breast Cancer panel; read-out: Mean GI50,270 nM
same,GI50,NCI-H226 [6]; NCI-H226,521 nM
same,activity at 10 µM,HOP-92 [2]; [18],-83.2%
same,GI50,SNB-19; SNB-19,306 nM
same,GI50,IGROV1,383 nM
same,GI50,SF-268; SF-268,343 nM
same,activity at 10 µM,NCI-H226 [3]; [19],-77.4%
CC[C@]12C=CCN3CC[C@@]4(c5ccc(OC)cc5N(C)[C@H]4[C@@](O)(C(=O)OC)[C@@H]1OC(=O)CCCC[P+](C1CCCCC1)(C1CCCCC1)C1CCCCC1)[C@@H]32 [10d],GI50,CNS Cancer panel; read-out: GI50 Mean,2600 nM
same,GI50,HOP-92 [4]; HOP-92,1020 nM
same,GI50,Colon Cancer panel; read-out: GI50 Mean,3800 nM
same,activity at 10 µM,U251; [8],-87.9%
same,GI50,Leukemia panel; read-out: GI50 Mean,1220 nM
same,GI50,T-47D,920 nM
same,GI50,A549/ATCC; A549,3130 nM
same,activity at 10 µM,BT-549; [9],-97.4%
same,GI50,[7],4290 nM
same,GI50,SR,1390 nM
same,activity at 10 µM,ACHN,18.7%
same,activity at 10 µM,HOP-62; [10],9.52%
same,activity at 10 µM,SF-295; [11],-19.6%
same,activity at 10 µM,CAKI-1 [1]; [12],-24.1%
same,activity at 10 µM,MOLT-4; [13],-5.16%
same,GI50,SK-MEL-5; SK-MEL-5,1880 nM
same,activity at 10 µM,"MCF7; MCF7, read-out: Growth percent",-64.2%
same,activity at 10 µM,OVCAR-8; [14],-6.33%
same,GI50,HS 578T; Hs-578T,2610 nM
same,GI50,SN12C,2770 nM
same,activity at 10 µM,UACC-257; [15],-82.1%
same,GI50,CAKI-1 [5]; CAKI-1,16700 nM
same,GI50,HT29,1430 nM
same,GI50,HCC-2998; HCC 2998,1310 nM
same,GI50,MDA-MB-435; MDA-MB-435,2620 nM
same,activity at 10 µM,SK-MEL-2; [16],-88%
same,activity at 10 µM,HL-60(TB); [17],-36.7%
same,GI50,Breast Cancer panel; read-out: GI50 Mean,1480 nM
same,GI50,NCI-H226 [6]; NCI-H226,4410 nM
same,activity at 10 µM,HOP-92 [2]; [18],-44.5%
same,GI50,SNB-19; SNB-19,1920 nM
same,GI50,IGROV1,1360 nM
same,GI50,SF-268; SF-268,3170 nM
same,activity at 10 µM,NCI-H226 [3]; [19],-22%

# Reference: article PMC12028158, “Synthesis and In Vitro Evaluation of the Anticancer Effect of Novel Phosphonium Vindoline Derivatives” (International Journal of Molecular Sciences, 2025)
